Results reported in patent publication US20210347794A1, “Phosphate Derivatives of Indole Compounds and Their Use” (ARIAGEN, INC., priority 2018, published 2021).

Assays:
[1] = In vivo pharmacokinetic study in rats, IV or oral dose of ARI-160
Procedure: This example describes pharmacokinetic (PK) studies of ARI-158 and ARI-160 in dogs and rats, respectively. In the present studies, the test compounds were given to groups of male beagle dogs and rats (N=3 in each group) intravenously (IV) at 2 mg/kg or orally (PO) at 10 mg/kg. IV doses were formulated in DMSO, while PO doses were formulated in a 50/50 mixture of PEG400 and Tween 80. Blood samples were collected at pre-dose and over a period of 24 hours post-dose. Plasma concentrations of the indolo-phosphoramidate compounds were determined by HPLC.

[2] = system: EMT-6 cancer cells; experiment: Anti-tumor activity in EMT-6 syngeneic mouse tumor model; format: in vivo; details: 80 mpk
Procedure: This example describes in vivo studies that evaluated the anti-cancer efficacy of ARI-158 and ARI-160 in syngeneic mouse tumor models. Mice implanted subcutaneously with EMT-6 cancer cells were treated with ARI-158 and ARI-160, or vehicle controls, as described below.
A monolayer culture of tumor cells was maintained in vitro in DMEM or RPMI1640 medium supplemented with 10% fetal bovine serum at 37° C. in an atmosphere of 5% CO2. Cells in exponential growth phase were harvested and quantitated by cell counter before tumor inoculation.
EMT-6 syngeneic mouse tumor models were generated by inoculating female BALB/C 6 mice with EMT-6 cancer cells at their right lower flank.
Each mouse was inoculated subcutaneously with tumor cells in 0.1 mL of PBS. Treatments were started when the mean tumor size reached approximately 80-120 mm^3 (around 100 mm^3). The administration of the test compounds and the animal number in each study group are shown in the study design. The date of tumor cell inoculation was denoted as day 0.
ARI-158 and ARI-160 were dissolved in DMSO at the final concentration of 26.7 mg/ml and stored at room temperature.
Randomization of animals was started when the mean tumor size reached approximately 90 mm^3 to form the mouse study groups. The randomization was performed based on “Matched distribution” method using the multi-task method (StudyDirector™ software, version 3.1.399.19)/randomized block design. […]
Tumor volumes were measured twice per week in two dimensions using a caliper, and the volume was expressed in mm^3 using the formula: […]
where V is tumor volume, L is tumor length (the longest tumor dimension) and W is tumor width (the longest tumor dimension perpendicular to L). Dosing as well as tumor and body weight measurements was conducted in a Laminar Flow Cabinet. The body weights and tumor volumes were measured by using StudyDirector™ software (version 3.1.399.19).
Tumor growth inhibition percentage (TGI %) is an indicator for antitumor activity of a drug compound, and expressed as: […]
where T and C are the mean tumor volume (or weight) of the treated and control groups, respectively, on a given day. Statistical analysis of the difference in mean tumor volume (MTV) among the groups was conducted using the data collected on the day when the MTV of the vehicle group reached the humane endpoints, so that TGI could be derived for all or most mice enrolled in the study.

[3] = IV 2 mg/kg ARI-160, Animal_ID 1
[4] = IV 2 mg/kg ARI-160, Animal_ID 2
[5] = IV 2 mg/kg ARI-160, Animal_ID 3
[6] = PO 10 mg/kg ARI-160, Animal_ID 4
[7] = PO 10 mg/kg ARI-160, Animal_ID 5
[8] = PO 10 mg/kg ARI-160, Animal_ID 6

CCC(=O)c1csc(C(=O)c2cn(COP(=O)([O-])[O-])c3cc(F)ccc23)n1.[Na+].[Na+] [ARI-160] showed an AUCinf [1, 3] of 5140 ng·h/mL, an AUClast [1, 3] of 5120 ng·h/mL and a Cl [1, 3] of 6.48 mL/min/kg. It also gave a Cmax [1, 3] of 16100 ng/mL, an MRTinf [1, 3] of 13.8 min and an MRTlast [1, 3] of 12.6 min. It also gave a Tmax [1, 3] of 4.98 min, a T½ [1, 3] of 37.2 min and a Vss [1, 3] of 0.0898 L/kg. For the same compound, the AUCinf [1, 4] was 3950 ng·h/mL, the AUClast [1, 4] was 3930 ng·h/mL and the Cl [1, 4] was 8.43 mL/min/kg. For the same compound, the Cmax [1, 4] was 12100 ng/mL, the MRTinf [1, 4] was 15.6 min and the MRTlast [1, 4] was 13.8 min. For the same compound, the Tmax [1, 4] was 4.98 min, the T½ [1, 4] was 51.6 min and the Vss [1, 4] was 0.132 L/kg. It also gave an AUCinf [1, 5] of 8590 ng·h/mL, an AUClast [1, 5] of 8590 ng·h/mL and a Cl [1, 5] of 3.88 mL/min/kg. For the same compound, the Cmax [1, 5] was 24600 ng/mL, the MRTinf [1, 5] was 10.8 min and the MRTlast [1, 5] was 10.8 min. The Tmax [1, 5] was 4.98 min, the T½ [1, 5] was 54 min and the Vss [1, 5] was 0.042 L/kg. The AUCinf ([1]; IV 2 mg/kg ARI-160, Mean) was 5890 ng·h/mL, the AUClast ([1]; IV 2 mg/kg ARI-160, Mean) was 5880 ng·h/mL and the Cl ([1]; IV 2 mg/kg ARI-160, Mean) was 6.27 mL/min/kg. For the same compound, the Cmax ([1]; IV 2 mg/kg ARI-160, Mean) was 17600 ng/mL, the MRTinf ([1]; IV 2 mg/kg ARI-160, Mean) was 13.2 min and the MRTlast ([1]; IV 2 mg/kg ARI-160, Mean) was 12.6 min. The Tmax ([1]; IV 2 mg/kg ARI-160, Mean) was 4.98 min, the T½ ([1]; IV 2 mg/kg ARI-160, Mean) was 47.4 min and the Vss ([1]; IV 2 mg/kg ARI-160, Mean) was 0.0878 L/kg. For the same compound, the bioavailability ([1]; IV versus oral dosing) was “better bioavailability with an IV dosing”, the AUCinf [1, 6] was 23.3 ng·h/mL and the AUClast [1, 6] was 13.3 ng·h/mL. For the same compound, the Cmax [1, 6] was 12.7 ng/mL, the MRTinf [1, 6] was 139 min and the MRTlast [1, 6] was 51.8 min. For the same compound, the Tmax [1, 6] was 15 min, the T½ [1, 6] was 94.8 min and the AUCinf [1, 7] was 51.8 ng·h/mL. It also gave an AUClast [1, 7] of 32.1 ng·h/mL, a Cmax [1, 7] of 10.1 ng/mL and an MRTinf [1, 7] of 505 min. For the same compound, the MRTlast [1, 7] was 195 min, the Tmax [1, 7] was 15 min and the T½ [1, 7] was 368 min. The AUCinf [1, 8] was 22.5 ng·h/mL, the AUClast [1, 8] was 11.0 ng·h/mL and the Cmax [1, 8] was 6.75 ng/mL. For the same compound, the MRTinf [1, 8] was 574 min, the MRTlast [1, 8] was 121 min and the Tmax [1, 8] was 15 min. For the same compound, the T½ [1, 8] was 364 min, the AUCinf ([1]; PO 10 mg/kg ARI-160, Mean) was 32.5 ng·h/mL and the AUClast ([1]; PO 10 mg/kg ARI-160, Mean) was 18.8 ng·h/mL. The Cmax ([1]; PO 10 mg/kg ARI-160, Mean) was 9.85 ng/mL, the F. ([1]; PO 10 mg/kg ARI-160, Mean) was 0.110% and the MRTinf ([1]; PO 10 mg/kg ARI-160, Mean) was 406 min. The MRTlast ([1]; PO 10 mg/kg ARI-160, Mean) was 122 min, the Tmax ([1]; PO 10 mg/kg ARI-160, Mean) was 15 min and the T½ ([1]; PO 10 mg/kg ARI-160, Mean) was 275 min. For the same compound, the “provision of ARI-143” value ([1]; after administration of ARI-160) was “provided ARI-143 after oral as well as IV administration”, the TGI ([2]; study day 6) was 0.01% and the TGI ([2]; study day 10) was 30.95%. The TGI ([2]; study day 13) was 30.58%, the TGI ([2]; study day 17) was 20.47% and the TGI ([2]; study day 20) was 32.25%. The TGI ([2]; study day 24) was 33.19%, the TGI ([2]; study day 27) was 22.24% and the TGI ([2]; study day 31) was 12.40%.
